pIC50: −log10 of the molar value. Structures can show the parent of a compound that is named as a salt.
What was measured:
KRAS_WT and SOS1 = target: T1, KRAS_WT and SOS1 (Homo sapiens, UniProt P01116); test: Inhibition of KRAS_WT/SOS1 binding (Cisbio binding kit, 665/615 ratio), Effect Embodiment C; conditions: read-out: GTP-KRAS-WT:SOS1 IC50
T1 construct: purchased
Method in brief: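 Compounds tested as 3-fold, 11-point dilutions in duplicate at 1% DMSO final against the KRAS_WT/SOS1 binding system. IC50 derived by nonlinear regression fit.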

KRAS-G12D and SOS1 = target: T2, KRAS-G12D and SOS1 (Homo sapiens, UniProt P01116, G12D); test: Inhibition of KRAS-G12D/SOS1 binding (Cisbio binding kit, 665/615 ratio), Effect Embodiment A; conditions: read-out: GTP-KRAS-G12D:SOS1 IC50
T2 construct: purchased
Method in brief: (§1)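 Test compounds were serially diluted 3-fold from the storage solution over 11 points and dispensed in duplicate wells at 1% final DMSO.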

KRAS_G12D and cRAF = target: T3, KRAS_G12D and cRAF (Homo sapiens, UniProt P01116, G12D); test: Inhibition of KRAS_G12D/cRAF binding (Cisbio binding kit, 665/615 ratio), Effect Embodiment B; conditions: read-out: GTP-KRAS-G12D:CRAF IC50
T3 construct: purchased
Method in brief: as §1

T3 sequence (P01116 1-188 isoform P01116-2 G12D): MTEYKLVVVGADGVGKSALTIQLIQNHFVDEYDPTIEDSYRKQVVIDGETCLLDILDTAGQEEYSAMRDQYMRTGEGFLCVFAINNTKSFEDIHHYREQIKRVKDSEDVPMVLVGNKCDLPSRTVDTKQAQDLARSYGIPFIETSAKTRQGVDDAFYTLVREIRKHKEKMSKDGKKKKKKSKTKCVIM
T2 sequence (P01116 1-188 isoform P01116-2 G12D): as above
T1 sequence (P01116 1-188 isoform P01116-2): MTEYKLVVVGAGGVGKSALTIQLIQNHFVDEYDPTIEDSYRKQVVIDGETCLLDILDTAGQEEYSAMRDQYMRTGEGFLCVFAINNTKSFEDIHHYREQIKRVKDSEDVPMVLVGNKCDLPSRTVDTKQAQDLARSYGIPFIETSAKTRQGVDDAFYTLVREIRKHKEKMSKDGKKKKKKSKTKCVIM

pIC50 (KRAS_WT and SOS1) | pIC50 (KRAS-G12D and SOS1) | pIC50 (KRAS_G12D and cRAF) | Compound
5.48 | 7.31 | 6.58 | CC(C)N1CC2CCC(C1)N2CCCOc1nc(N2CC3CCC(C2)N3)c2cc(Cl)c(-c3cc(O)cc4ccccc34)c(F)c2n1 (single isomer, unassigned) [Compound 244, 4-((7S or 7R)-4-((1R,5S)-3,8-diazacyclo[3.2.1]octan-3-yl)-6-chloro-8-fluoro-2-(3-(3-isopropyl-3,8-diazacyclo[3.2.1]octan-8-yl)propoxy)quinazolin-7-yl)naphthalen-2-ol diformate]
5.83 | 7.56 | 6.96 | Oc1cc(-c2c(Cl)cc3c(N4CC5CCC(C4)N5)nc(OCCCN4CC5(COC5)C4)nc3c2F)c2ccccc2c1 (single isomer, unassigned) [Compound 245, 4-((S or R)-2-(3-(2-oxa-6-azaspiro[3.3]heptan-6-yl)propoxy)-4-((1R,5S)-3,8-diazacyclo[3.2.1]octan-3-yl)-6-chloro-8-fluoroquinazolin-7-yl)naphthalen-2-ol diformate]
5.43 | 7.43 | 6.66 | C[C@H]1CN(CCCOc2nc(N3CC4CCC(C3)N4)c3cc(Cl)c(-c4cc(O)cc5ccccc45)c(F)c3n2)CCO1 (single isomer, unassigned) [Compound 246, 4-((S or R)-4-((1R,5S)-3,8-diazacyclo[3.2.1]octan-3-yl)-6-chloro-8-fluoro-2-(3-((S)-2-methylmorpholinyl)propoxy)quinazolin-7-yl)naphthalen-2-ol formate]
6.03 | 7.88 | 7.55 | C[C@@H](COc1nc(N2CC3CCC(C2)N3)c2cc(Cl)c(-c3cc(O)cc4ccccc34)c(F)c2n1)CN1CCO[C@@H](C)C1 (single isomer, unassigned) [Compound 247, 4-((S or R)-4-((1R,5S)-3,8-diazacyclo[3.2.1]octan-3-yl)-6-chloro-8-fluoro-2-((R)-2-methyl-3-((S)-2-methylmorpholinyl)propoxy)quinazolin-7-yl)naphthalen-2-ol formate]
7.01 | 7.51 | 7.17 | Oc1cc(-c2c(Cl)cc3c(N4CC5CCC(C4)N5)nc(OCCCN4C5CCC4COC5)nc3c2F)c2c(F)c(F)ccc2c1 (single isomer, unassigned) [Compound 248, (4S or 4R)-4-(2-(3-(3-oxa-8-azabicyclo[3.2.1]octan-8-yl)propoxy)-4-(1R,5S)-3,8-diazabicyclo[3.2.1]octan-3-yl)-6-chloro-8-fluoroquinazolin-7-yl)-5,6-difluronaphththalen-2-ol formate]
7.07 | 7.62 | 7.79 | C=CCCOCCCN1CCC[C@H]1COc1nc(N2CC3CCC(C2)N3)c2cc(F)c(-c3cc(O)cc4ccc(F)c(CC)c34)c(F)c2n1 (single isomer, unassigned) [Compound 249, 4-((S or R)-4-((1R,5S)-3,8-diazacyclo[3.2.1]octan-3-yl)-2-((S)-1-(3-(but-3-en-1-oxy)propyl)pyrrolidin-2-yl)methoxy)-6,8-difluoroquinazolin-7-yl)-5-ethyl-6-fluoronaphthalen-2-ol dihydrochloride]
7.12 | 8.07 | 7.84 | CCc1c(F)ccc2cc(O)cc(-c3c(F)cc4c(N5CC6CCC(C5)N6)nc(OCCCN5C[C@@H](C)O[C@@H](C)C5)nc4c3F)c12 (single isomer, unassigned) [Compound 250a, (S or R)-4-(4-((1R,5S)-3,8-diazacyclo[3.2.1]octan-3-yl)-2-(3-((2R,6S)-2,6-dimethylmorpholinyl)propoxy)-6,8-difluoroquinazolin-7-yl)-5-ethyl-6-fluoronaphthalen-2-ol formate]
7.12 | 8.36 | 7.88 | C#Cc1c(F)ccc2cc(O)cc(-c3c(Cl)cc4c(N5CC6CCC(C5)N6)nc(OCCCN5C6CCC5COC6)nc4c3F)c12 (single isomer, unassigned) [Compound 255b, (4R or 4S)-4-(2-(3-(3-oxa-8-azabicyclo[3.2.1]octan-8-yl)propoxy)-4-(1R,5S)-3,8-diazabicyclo[3.2.1]octan-3-yl)-6-chloro-8-fluoroquinazolin-7-yl)-5-ethynyl-6-fluoronaphthalen-2-ol diformate]
< 5.00 | 7.19 | 6.53 | CO[C@@H](COc1nc(N2CC3CCC(C2)N3)c2cc(Cl)c(-c3cc(O)cc4ccccc34)c(F)c2n1)CN1C2CCCC1CC2 (single isomer, unassigned) [Compound 257, (4S or 4R)-4-(2-((2R)-3-(8-azabicyclo[3.2.1]octan-8-yl)-2-methoxypropoxy)-4-((1R,5S)-3,8-diazabicyclo[3.2.1]octan-3-yl)-6-chloro-8-fluoroquinazolin-7-yl)naphthalen-2-ol formate]
5.21 | 7.57 | 6.66 | CO[C@H]1CCN(CCCOc2nc(N3CC4CCC(C3)N4)c3cc(Cl)c(-c4cc(O)cc5ccccc45)c(F)c3n2)[C@H](C)C1 (single isomer, unassigned) [Compound 258, 4-((S or R)-4-((1R,5S)-3,8-diazacyclo[3.2.1]octan-3-yl)-6-chloro-8-fluoro-2-(3-((2R,4S)-4-methoxy-2-methylpiperidin-1-yl)propoxy)quinazolin-7-yl)naphthalen-2-ol diformate]
5.83 | 7.60 | 6.83 | Oc1cc(-c2c(Cl)cc3c(N4CC5CCC(C4)N5)nc(OCCCN4CCC5(CCOCC5)C4)nc3c2F)c2ccccc2c1 (single isomer, unassigned) [Compound 259, 4-((S or R)-2-(3-(8-oxa-2-azaspiro[4.5]decan-2-yl)propoxy)-4-((1R,5S)-3,8-diazacyclo[3.2.1]octan-3-yl)-6-chloro-8-fluoroquinazolin-7-yl)naphthalen-2-ol formate]
5.35 | 7.59 | 6.80 | Oc1cc(-c2c(Cl)cc3c(N4CC5CCC(C4)N5)nc(OCC45CCN(CC4)CC5)nc3c2F)c2ccccc2c1 (single isomer, unassigned) [Compound 260, 4-((S or R)-4-((1R,5S)-3,8-diazacyclo[3.2.1]octan-3-yl)-6-chloro-8-fluoro-2-(quinin-4-ylmethoxy)quinazolin-7-yl)naphthalen-2-ol diformate]
5.97 | 7.73 | 6.99 | Oc1cc(-c2c(Cl)cc3c(N4CC5CCC(C4)N5)nc(OCCCN4CCC5(CCOC5)CC4)nc3c2F)c2ccccc2c1 (single isomer, unassigned) [Compound 261, 4-((S or R)-2-(3-(2-oxa-8-azaspiro[4.5]decan-8-yl)propoxy)-4-((1R,5S)-3,8-diazacyclo[3.2.1]octan-3-yl)-6-chloro-8-fluoroquinazolin-7-yl)naphthalen-2-ol diformate]
5.78 | 7.61 | 6.85 | Oc1cc(-c2c(Cl)cc3c(N4CC5CCC(C4)N5)nc(OCCCN4CCC5(CC4)COC5)nc3c2F)c2ccccc2c1 (single isomer, unassigned) [Compound 262, 4-((S or R)-2-(3-(2-oxa-7-azaspiro[3.5]nonan-7-yl)propoxy)-4-((1R,5S)-3,8-diazacyclo[3.2.1]octan-3-yl)-6-chloro-8-fluoroquinazolin-7-yl)naphthalen-2-ol diformate]
6.06 | 7.64 | 6.93 | Oc1cc(-c2c(Cl)cc3c(N4CC5CCC(C4)N5)nc(OCCCN4CC5(CCOC5)C4)nc3c2F)c2ccccc2c1 (single isomer, unassigned) [Compound 263, 4-((S or R)-2-(3-(6-oxa-2-azaspiro[3.4]octan-2-yl)propoxy)-4-((1R,5S)-3,8-diazacyclo[3.2.1]octan-3-yl)-6-chloro-8-fluoroquinazolin-7-yl)naphthalen-2-ol formate]
6.47 | 7.93 | 7.49 | Oc1cc(-c2c(Cl)cc3c(N4CC5CCC(C4)N5)nc(OCC4CCC5COCCN5C4)nc3c2F)c2ccccc2c1 (single isomer, unassigned) [Compound 264a, 4-((S or R)-4-((1R,5S)-3,8-diazacyclo[3.2.1]octan-3-yl)-6-chloro-8-fluoro-2-((7S or 7R, 9aS or 9aR)-octahydropyridine[2,1-c][1,4]oxazin-7-yl)methoxy)quinazolin-7-yl)naphthalen-2-ol formate]
6.71 | 7.71 | 7.00 | Oc1cc(-c2c(Cl)cc3c(N4CC5CCC(C4)N5)nc(OCC4CCC5COCCN5C4)nc3c2F)c2ccccc2c1 (single isomer, unassigned) [Compound 264b, 4-((R or S)-4-((1R,5S)-3,8-diazacyclo[3.2.1]octan-3-yl)-6-chloro-8-fluoro-2-((7R or 7S, 9aR or 9aS)-octahydropyridine[2,1-c][1,4]oxazin-7-yl)methoxy)quinazolin-7-yl)naphthalen-2-ol formate]
5.23 | 7.04 | 6.54 | CC1OCCN(CCCOc2nc(N3CC4CCC(C3)N4)c3cc(Cl)c(-c4cc(O)cc5ccccc45)c(F)c3n2)C1C (single isomer, unassigned) [Compound 265a, 4-((R or S)-4-((1R,5S)-3,8-diazabicyclo[3.2.1]octan-3-yl)-6-chloro-2-(3-((2R or 2S, 3S or 3R)-2,3-dimethylmorpholinyl)propoxy)-8-fluoroquinazolin-7-yl)naphthalen-2-ol diformate]
